# Target: T1, androgen receptor (Homo sapiens, UniProt P10275)
# T1 sequence (P10275 1-920 Q868H): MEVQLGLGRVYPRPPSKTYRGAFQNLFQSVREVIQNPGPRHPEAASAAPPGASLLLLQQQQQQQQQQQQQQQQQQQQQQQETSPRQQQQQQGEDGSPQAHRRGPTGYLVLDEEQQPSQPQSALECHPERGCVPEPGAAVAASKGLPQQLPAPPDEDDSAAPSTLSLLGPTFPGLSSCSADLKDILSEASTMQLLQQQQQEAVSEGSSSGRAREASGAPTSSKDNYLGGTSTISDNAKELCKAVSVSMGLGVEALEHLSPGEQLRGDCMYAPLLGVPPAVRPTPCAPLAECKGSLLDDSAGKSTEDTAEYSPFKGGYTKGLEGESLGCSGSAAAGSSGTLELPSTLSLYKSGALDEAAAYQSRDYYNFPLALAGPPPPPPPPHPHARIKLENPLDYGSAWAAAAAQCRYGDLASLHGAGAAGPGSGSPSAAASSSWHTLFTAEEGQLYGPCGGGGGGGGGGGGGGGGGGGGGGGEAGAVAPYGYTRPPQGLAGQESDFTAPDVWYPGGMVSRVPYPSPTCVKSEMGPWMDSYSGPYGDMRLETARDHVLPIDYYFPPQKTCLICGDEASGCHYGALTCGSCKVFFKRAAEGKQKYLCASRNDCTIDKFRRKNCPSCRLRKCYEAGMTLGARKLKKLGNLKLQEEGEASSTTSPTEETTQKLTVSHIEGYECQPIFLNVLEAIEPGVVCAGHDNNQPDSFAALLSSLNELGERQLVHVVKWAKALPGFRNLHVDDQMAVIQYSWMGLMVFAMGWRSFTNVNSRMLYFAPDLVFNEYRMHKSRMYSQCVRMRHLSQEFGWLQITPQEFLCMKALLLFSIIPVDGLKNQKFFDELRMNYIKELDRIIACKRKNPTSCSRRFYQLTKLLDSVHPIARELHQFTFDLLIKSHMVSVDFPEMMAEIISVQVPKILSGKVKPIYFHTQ
# Experiment: AR Antagonist Cell Assay (MMTV-luciferase reporter, DHT-induced)
# Format: cell-based
# Details: MDA-MB453-MMTV clone 54-19 cells, 100 pM DHT, 17 hr
# Method: The compounds ability to antagonize the effects of androgen on the androgen receptor were determined in the protocol described immediately below.
# Experimental Procedure for AR Antagonist Cell Assay
# Cell line: MDA-MB453-MMTV clone 54-19. This cell line is a stable transfected cell line with MDA-MB453 cell background (human breast tumor cell expressing high level of androgen receptor). A MMTV minimal promoter containing ARE was first cloned in front of a firefly luciferase reporter gene. Then the cascade was cloned into transfection vector pUV120puro. Electroporation method was used for transfecting MDA-MB-453 cell. Puromycin resistant stable cell line was selected.
# Cell Culture Media and Reagents:
# Culture medium: DMEM (high glucose, Gibco cat #: 11960-044), 10% FBS, and 1% L-glutamine
# Plating medium: DMEM (phenol red free), 10% charcoal treated HyClone serum, 1% L-glutamine
# Assay medium: DMEM (phenol red free), 1% charcoal treated HyClone serum, 1% L-glutamine, and 1% penicillin/streptomycin
# 3× luciferase buffer: 2% beta-mercaptoethanol, 0.6% ATP, 0.0135% luciferine in cell lysis buffer
# • 1. Cells are maintained in culture medium, splitting cells when they reach 80–90% confluence • 2. To test compounds, 10,000 cells/well are plated to opaque 96 cell culture plate in 100 ul/well plating medium, culture for overnight at 37° C. in cell culture incubator • 3. Carefully remove plating medium, then add 80 ul/well of pre-warmed assay medium, add 10 ul/well testing compound (final concentration at 10 uM or 1 uM), incubate at 37° C. for 30 minutes • 4. Add 10 ul/well freshly prepared DHT (final concentration at 100 pM) to each well, incubate at 37° C. for 17 hr (overnight) • 5. Add 50 ul/well 3× luciferase buffer, incubate at room temperature for 5 minutes, then count on Luminometer The fold induction over background by 100 pM DHT in the absence of testing compounds is standardized as 100% and experimental result is expressed as percentage of inhibition by testing compounds. TABLE3
row,Structure (SMILES),IC50 [µM]
1,"Cn1c(=O)cc(C(F)(F)F)c2cc(S(=O)(=O)Nc3cnc4ccccc4c3)ccc21 [Example 33, 1-Methyl-2-oxo-4-trifluoromethyl-1,2-dihydroquinoline-6-sulfonicacid quinolin-3-ylamide]",> 10
2,"Cc1ccc(-c2ccccc2)cc1NS(=O)(=O)c1ccc2[nH]c(=O)cc(C(F)(F)F)c2c1 [Example 99, 2-Oxo-4-trifluoromethyl-1,2-dihydroquinoline-6-sulfonic acid(4-methylbiphenyl-3-yl)amide]",> 10
3,"COc1ccc(N(Cc2ccccc2)S(=O)(=O)c2ccc3c(c2)c(C(F)(F)F)cc(=O)n3C)cc1 [Example 46, 1-Methyl-2-oxo-4-trifluoromethyl-1,2-dihydroquinoline-6-sulfonicacid benzyl(4-methoxy-phenyl)amide]",> 10
4,"O=c1cc(C(F)(F)F)c2cc(S(=O)(=O)NCc3cccc(Cl)c3F)ccc2[nH]1 [Example 141, 2-Oxo-4-trifluoromethyl-1,2-dihydroquinoline-6-sulfonic acid3-chloro-2-fluorobenzylamide]",> 10
5,"CCCN(CC1CC1)S(=O)(=O)c1ccc2[nH]c(=O)cc(C(F)(F)F)c2c1 [Example 73, 2-Oxo-4-trifluoromethyl-1,2-dihydroquinoline-6-sulfonic acidcyclopropylmethyl-propylamide]",0.55
6,"COc1cc(CNS(=O)(=O)c2ccc3[nH]c(=O)cc(C(F)(F)F)c3c2)cc(OC)c1 [Example 149, 2-Oxo-4-trifluoromethyl-1,2-dihydroquinoline-6-sulfonic acid3,5-dimethoxybenzylamide]",> 10
7,"COc1cc(NS(=O)(=O)c2ccc3c(c2)c(C(F)(F)F)cc(=O)n3C)cc(OC)c1 [Example 36, 1-Methyl-2-oxo-4-trifluoromethyl-1,2-dihydroquinoline-6-sulfonicacid (3,5-dimethoxyphenyl)-amide]",2.72
8,"CC(C)Oc1cccc(NS(=O)(=O)c2ccc3[nH]c(=O)cc(C(F)(F)F)c3c2)c1 [Example 105, 2-Oxo-4-trifluoromethyl-1,2-dihydroquinoline-6-sulfonic acid(3-isopropoxyphenyl)amide]",0.45
9,"CN(c1ccccc1)S(=O)(=O)c1ccc2c(c1)c(C(F)(F)F)cc(=O)n2C [Example 12, 1-Methyl-2-oxo-4-trifluoromethyl-1,2-dihydroquinoline-6-sulfonicacid methylphenylamide]",> 10
10,"Cn1c(=O)cc(C(F)(F)F)c2cc(S(=O)(=O)NCCSCc3c(F)cccc3Cl)ccc21 [Example 63, 1-Methyl-2-oxo-4-trifluoromethyl-1,2-dihydroquinoline-6-sulfonicacid [2-(2-chloro-6-fluorobenzylsulfanyl)ethyl]-amide]",> 10
11,"O=c1cc(C(F)(F)F)c2cc(S(=O)(=O)Nc3ccc4ncccc4c3)ccc2[nH]1 [Example 93, 2-Oxo-4-trifluoromethyl-1,2-dihydroquinoline-6-sulfonic acidquinolin-6-ylamide]",3.46
12,"CC(C)NS(=O)(=O)c1ccc2[nH]c(=O)cc(C(F)(F)F)c2c1 [Example 117, 2-Oxo-4-trifluoromethyl-1,2-dihydroquinoline-6-sulfonic acidisopropylamide]",2.34
13,"O=c1cc(C(F)(F)F)c2cc(S(=O)(=O)NCCCO)ccc2[nH]1 [Example 157, 2-Oxo-4-trifluoromethyl-1,2-dihydroquinoline-6-sulfonic acid(3-hydroxypropyl)amide]",6.73
14,"O=c1cc(C(F)(F)F)c2cc(S(=O)(=O)Nc3cccc(OCc4ccccc4)c3)ccc2[nH]1 [Example 114, 2-Oxo-4-trifluoromethyl-1,2-dihydroquinoline-6-sulfonic acid(3-benzyloxyphenyl)amide]",> 10
15,"O=c1cc(C(F)(F)F)c2cc(S(=O)(=O)Nc3cccc(C(F)(F)F)c3)ccc2[nH]1 [Example 109, 2-Oxo-4-trifluoromethyl-1,2-dihydroquinoline-6-sulfonic acid(3-trifluoromethylphenyl)amide]",0.21

# Reference: patent US7009052B2, “Sulfonamide derivatives” (Warner Lambert Company LLC, priority 2003, dated 2006)
